Like-named read-outs stand apart in the source and are kept apart here.
Experiments:
Mouse TAAR 1 [1] = tested on: Mouse TAAR 1
Protocol: (§1) The amount of cAMP produced by HEK293 cells stably expressing the indicated receptor in response to stimulation by each of the listed compounds was measured using the cAMP Biotrak EIA System (Amersham). Shown are the EC50 values in µM (means of at least three independent experiments; EC50 values are calculated from experiments carried out with 12 concentrations each in duplicates evenly distributed in the range of 30 µM - 0.1 nM). The maximal response is represented as percentage of the maximal cAMP levels induced by p-TYR.
(§2) cAMP assay: cAMP was assayed using the cAMP Biotrak Enzymeimmunoassay (EIA) System from Amersham as described in the product manual, following the so-called Non-acetylation EIA procdure.
(§3) In the protocol the following minor modifications were introduced: After stimulation of HEK cells in 96 well plates the reaction was stopped by applying equal volume of pre cooled (-20°C) ethanol. Lysis of cells was not achieved by applying the lysis buffer supplied with the kit, but with transferring the 96 well plates to -80°C for a minimum of 6 hrs (up to several days). Thereafter the contents of the 96 well plates was dried at 50°C over night, and the material remaining in the 96 well plates was resuspended in 200 µl of the assay buffer (the buffer used for resuspending all reagents of the kit). The resuspension were assayed in serial dilutions in assay buffer.

Mouse TAAR 1 [2] = experiment: cAMP Biotrak EIA functional assay in HEK293 cells stably expressing the receptor
Protocol: as §1, §2, §3

Row | Compound | EC50 (Mouse TAAR 1 [1]) | Max (Mouse TAAR 1 [2]; maximal response as percentage of the maximal cAMP levels induced by p-TYR, HEK293 cells stably expressing mTAAR1) | Max (Mouse TAAR 1 [2]; hek293 cells) | EC50 (Mouse TAAR 1 [2])
1 | NCCc1ccc(O)cc1 [p-TYR, p-tyramine] | 1370 ± 330 nM | 100% |  | 
2 | NCCc1ccccc1 [β-PEA, β-phenylethylamine] |  |  | 100% | 
3 | CNCCc1ccc(O)cc1 [N-methyl-p-tyramine] |  |  | 100% | 1020 ± 390 nM
4 | CNCCc1ccccc1 [N-methyl-β-PEA] |  |  | 100% | 
5 | NCCc1c[nH]c2ccccc12 [TRY, tryptamine] |  |  | 100% | 

— patent EP1627887A2, “Mouce trace amine associated receptors” (F.HOFFMANN-LA ROCHE AG, priority 2004, dated 2006)
